Measurements published in patent US20250313900A1, “COMPOSITIONS AND THERAPEUTIC AGENTS FOR MODULATING INFLAMMATORY RESPONSES ON BOTH TUMOR AND IMMUNE CELLS” (THE METHODIST HOSPITAL, priority 2022, published 2025).
Where two headings read alike, the source gives them in different places. Blank lines part the entries; values can stand above or below the compound they belong to.

Columns and labels:
vinculin = assay: Western blots of vinculin expression, 4T1 tumor model; format: cell-based; settings: CMTM4 knockout, 1 mm, 0, 3, 6 and 24 hours
Experimental: 1 mm of C10H14O3 (4-Ethoxy-3-methoxybenzyl alcohol)(28A), C9H16N2O6 (Tetrahydrouridine)(28B), or C10H14O3 (5-tert-butyl-2-methyl-3-furoic acid)(28C) was administered to control mice or CMTM4 knockouts and expression measured after 0, 3, 6, and 24 hours.

IL-6 = IL-6 production (compound screening); format: cell-based
Source text: (§1) The initial screening was followed by the following assessments: 1) MHC 11 assay by high-throughput flow cytometry. 2) IL-6 production. 3) NF-kB promoter activity using CMTM4-expressing NF-kB/secreted embryonic alkaline phosphatase (SEAP) reporter stable cell lines using both LLC and 4T1 cells. 4) Inhibition of EGF-mediated G-CSF secretion from tumor cells. 5) Test glycolysis (FIG. 13).

glycolysis = assay: Test glycolysis (compound screening); format: cell-based
Source text: as §1

p-Akt/p-mTOR = p-Akt/p-mTOR (compound screening); format: cell-based
Experimental: (§2) Protein samples from cells were separated on sodium dodecyl sulfate (SDS)-polyacrylamide gels and transferred to PVDF membranes. The membranes were blocked in 4% skim milk solution, incubated with the appropriate antibody, and subsequently incubated with a secondary antibody conjugated with horseradish peroxidase. The antibodies for p-NF-κBp65, NF-κBp65. EGFR, PTEN, Akt, p-Akt, mTOR, p-mTOR, S6, p-S6, Rab4, Rab5a, Rab11, Tubulin, actin, vinculin, and CMTM4 were purchased from Cell Signaling Technology, Inc. (Beverly, MA) and the antibody for Rab21 was purchased from Santa Cruz Biotechnology. The immunoreactive bands were visualized using the ECL system (Thermo Scientific). Control and CMTM4 KD cell lysates were analyzed using the proteome profiler mouse phospho-receptor tyrosine kinase array kit (R&D Systems) following the manufacturer's instructions. For immunoprecipitation, Dynabeads His-Tag isolation and pulldown kit (Life Technologies) was used. The pull-down samples were subjected to immunoblot assays.

CMTM4 [1] = biological target: T1, CMTM4 (Mus musculus, UniProt Q8CJ61); assay: CMTM4 level (compound screening); format: cell-based
T1 construct: endogenous in cells; LLC and 4T1 are the only lines named in the screen
T1 sequence (Q8CJ61 whole entry): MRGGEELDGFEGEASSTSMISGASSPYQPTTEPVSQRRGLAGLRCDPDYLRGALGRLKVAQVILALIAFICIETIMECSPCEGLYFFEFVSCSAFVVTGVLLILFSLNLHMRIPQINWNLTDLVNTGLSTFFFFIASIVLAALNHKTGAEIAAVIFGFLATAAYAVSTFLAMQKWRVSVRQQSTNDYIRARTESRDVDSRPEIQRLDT
Experimental: as §2

CMTM4 [2] = assay: Western blot of CMTM4 protein in HCC827 CT cells; format: cell-based, human; settings: 1 μM
MHC II = MHC II assay by high-throughput flow cytometry (compound screening); format: cell-based
Source text: as §1

[3] = test system: NF-kB promoter activity in LLC cells; assay: NF-kB promoter activity, CMTM4-expressing NF-kB/SEAP reporter stable LLC cells; format: cell-based, murine
Source text: as §1

[4] = test system: NF-kB promoter activity in 4T1 cells; assay: NF-kB promoter activity, CMTM4-expressing NF-kB/SEAP reporter stable 4T1 cells; format: cell-based, murine
Source text: as §1

G-CSF = assay: Inhibition of EGF-mediated G-CSF secretion from tumor cells; format: cell-based
Experimental: as §1
Secretion of G-CSF was determined using ELISA kits according to the manufacturer's instructions (Life Technologies).

EGFR = EGFR levels in LLC CMTM4 KD cells after lipid raft depletion; format: cell-based, murine
Experimental: Flotillin-1 was used as a marker of lipid raft and vinculin was used as a maker of the non-raft fraction. […] FIGS. 8D and 8E show LLC CMTM4 KD cells were treated with MβCD and real-time PCR (8D) and western blot (8E) were performed to determine EGFR levels. *p<0.05. FIG. 8F show 293T cells were transfected with CMTM4 WT-mcherry (upper) or CMTM4 MT-mcherry (lower) with EGFR-EGFP and then, cells were treated with EGF for 1 hour. Representative confocal images are shown. FIG. 8G show RNAseq data showing Rab expression between control and CMTM4 KD LLC cells. FIGS. 8H and 8I show Rab expression in control and CMTM4 KD LLC cells were determined by qRT-PCR (H) and western blot (8I). FIGS. 8J, 8K, and 8L show 293T cells were transfected with CMTM4-EGFP and Rab4 (mCherry), Rab5 (mCherry), or Rab11 (mCherry), and then, cells were treated with EGF for 1 hour. Representative confocal images are shown. Pearson correlation coefficient (PCC) was measured from 20 individual cells. FIGS. 8M and 8N show EGFR-EGFR and Lamp-1 RFP were transfected to LLC control and CMTM4 KD cells. Confocal imaging was taken before (8M) and after (8N) treatment with EGF. Pearson correlation coefficient (PCC) was measured from 20 individual cells. *p<0.05, **p<0.01, ***P<0.001, ****P<0.0001. Scale bar: 3 μm. […]

Compound: CCOc1ccc(CO)cc1OC [4-Ethoxy-3-methoxybenzyl alcohol]
vinculin expression (vinculin): significantly increased

Compound: Cc1oc(C(C)(C)C)cc1C(=O)O [5-tert-butyl-2-methyl-3-furoic acid]
vinculin expression (vinculin): significantly increased

Compound: N#Cc1cn([C@@H]2O[C@H](CO)[C@@H](O)[C@H]2O)c2ncnc(N)c12 [C12H13N5O4, Toyocamycin, Toyocamycin]
IL-6 (%) (IL-6): −3.717%
Glycolysis (glycolysis): Inhibit
p-Akt/p-mTOR (p-Akt/p-mTOR): Decrease
CMTM4 (CMTM4 [1]): No difference

Compound: C[C@H]1O[C@H](O[C@H]2[C@H](O)[C@@H](O)[C@@H](O)[C@H](O)[C@@H]2O)[C@@H](N)C[C@@H]1NC(=N)C(=O)O [C14H25N3O9, Kasugamycin, Kasugamycin]
MHC II (%) (MHC II): 483.4%
IL-6 (%) (IL-6): 1.934%
NF-kB (%)-LLC [3]: 46.83%
NF-kB (%)-4T1 [4]: 44.19%
G-CSF (%) (G-CSF): 66.41%
Glycolysis (glycolysis): Inhibit
p-Akt/p-mTOR (p-Akt/p-mTOR): Decrease
CMTM4 (CMTM4 [1]): No difference

Compound: COc1cc(-c2oc3cc(O)cc(O)c3c(=O)c2O)ccc1O [C16H12O7, Isorhamnctin, Isorhamnetin]
IL-6 (%) (IL-6): −11.581%
Glycolysis (glycolysis): Inhibit
p-Akt/p-mTOR (p-Akt/p-mTOR): Decrease
CMTM4 (CMTM4 [1]): No difference

Compound: CO[C@H]1Nc2c(ccc(C)c2O)C(=O)N2C=C(/C=C/C(N)=O)C[C@@H]12 [C17H19N3O4, Anthramycin methyl ether, Anthramycin methyl ether]
IL-6 (%) (IL-6): −1.982%
Glycolysis (glycolysis): Inhibit
p-Akt/p-mTOR (p-Akt/p-mTOR): Decrease
CMTM4 (CMTM4 [1]): No difference

Compound: CCc1cccc2c1c(O)c(C(=O)N(CC)c1ccccc1)c(=O)n2C [C21H22N2O3, Paquinimod, Paquinimod]
MHC II (%) (MHC II): 520.6%
IL-6 (%) (IL-6): −0.809%
NF-kB (%)-LLC ([3]; LLC reporter cells): 32.6%
NF-kB (%)-4T1 ([4]; 4T1 reporter cells): 46.87%
G-CSF (%) (G-CSF; EGF-mediated secretion): 3.464%
Glycolysis (glycolysis): Inhibit
p-Akt/p-mTOR (p-Akt/p-mTOR): Decrease
CMTM4 (CMTM4 [1]): No difference

Compound: CCCCC1CCCCCCc2[nH]c(/C=C3\N=C(c4ccc[nH]4)C=C3OC)cc21.Cl (centres unmarked) [C25H33N3O•ClH, Butylcycloheptylprodiginine Hydrochloride]
MHC II (%) (MHC II): 426.2%
IL-6 (%) (IL-6): −6.005%
NF-kB (%)-LLC ([3]; LLC reporter cells): 53.61%
NF-kB (%)-4T1 ([4]; 4T1 reporter cells): 45.8%
G-CSF (%) (G-CSF; EGF-mediated secretion): 4.236%
Glycolysis (glycolysis): Inhibit
CMTM4 (CMTM4 [1]): Decrease

Compound: Cc1c2ccncc2c(C)c2c1[nH]c1ccccc12 [Ellipticine]
IL-6 (%) (IL-6): −15.7288%
Glycolysis (glycolysis): Inhibit
p-Akt/p-mTOR (p-Akt/p-mTOR): Decrease
CMTM4 (CMTM4 [1]): No difference
CMTM4 protein expression (CMTM4 [2]): decreased

Compound: COc1ccc2c3c([nH]c2c1)[C@H](C=C(C)C)N1C(=O)[C@@H]2CCCN2C(=O)[C@@H]1C3 [Fumitremorgin C]
MHC II (%) (MHC II): 5071%
IL-6 (%) (IL-6): 10.85%
NF-kB (%)-LLC [3]: 42.89%
NF-kB (%)-4T1 [4]: 49.73%
G-CSF (%) (G-CSF): 6.939%
Glycolysis (glycolysis): Inhibit
p-Akt/p-mTOR (p-Akt/p-mTOR): Decrease
CMTM4 (CMTM4 [1]): No difference

Compound: methyl-beta-cyclodextrin [methyl-beta-cyclodextrin (MβCD)]
EGFR mRNA level (EGFR; real-time PCR): increased
EGFR protein level (EGFR; western blot): increased

Now from value to compound, other results behind:

CMTM4 (CMTM4 [1]): No difference
Compound: C/C=C/C(=O)O [C4H6O2, CROTONIC ACID, CROTONIC ACID]
IL-6 (%) (IL-6): 4.438%
Glycolysis (glycolysis): Inhibit
p-Akt/p-mTOR (p-Akt/p-mTOR): Decrease

CMTM4 (CMTM4 [1]): No difference
Compound: O=C1NC(O)CCN1[C@@H]1O[C@H](CO)[C@@H](O)[C@H]1O (some centres unmarked) [C9H16N2O6, Tetrahydrouridine, Tetrahydrouridine]
IL-6 (%) (IL-6): −0.1232%
Glycolysis (glycolysis): Inhibit
p-Akt/p-mTOR (p-Akt/p-mTOR): Decrease
CMTM4 protein expression (CMTM4 [2]): decreased
vinculin expression (vinculin): significantly increased

CMTM4 (CMTM4 [1]): No difference
Compound: OC[C@H]1O[C@@H](n2cnc3c(O)ncnc32)[C@H](O)[C@@H]1O [C10H12N4O5, Inosine, Inosine]
IL-6 (%) (IL-6): −9.437%
Glycolysis (glycolysis): Inhibit
CMTM4 protein expression (CMTM4 [2]): decreased

CMTM4 (CMTM4 [1]): No difference
Compound: Cc1ccccc1OCC(O)CO (centres unmarked) [C10H14O3, Mephenesin, Mephenesin]
IL-6 (%) (IL-6): 0.5625%
Glycolysis (glycolysis): Inhibit
p-Akt/p-mTOR (p-Akt/p-mTOR): Decrease

CMTM4 (CMTM4 [1]): No difference
Compound: COc1cc(O)c2c(=O)c(O)c(-c3ccc(O)c(O)c3)oc2c1 [C16H12O7, Rhamnetin, Rhamnetin]
IL-6 (%) (IL-6): −5.243%
Glycolysis (glycolysis): Inhibit
p-Akt/p-mTOR (p-Akt/p-mTOR): Decrease

CMTM4 (CMTM4 [1]): No difference
Compound: O=C(/C=C/c1ccc(O)c(O)c1)O[C@H](Cc1ccc(O)c(O)c1)C(=O)O [C18H16O8, Rosmarinic Acid, Rosmarinic Acid]
IL-6 (%) (IL-6): −0.1232%
Glycolysis (glycolysis): Inhibit
p-Akt/p-mTOR (p-Akt/p-mTOR): Decrease

CMTM4 (CMTM4 [1]): Decrease
Compound: CC[C@]12CCCN3CCc4c(n(c5ccccc45)[C@@](O)(C(=O)OC)C1)[C@@H]32 [C21H26N2O3, Vincamine, Vincamine]
IL-6 (%) (IL-6): 5.815%
Glycolysis (glycolysis): Inhibit
p-Akt/p-mTOR (p-Akt/p-mTOR): No difference

CMTM4 (CMTM4 [1]): No difference
Compound: C[C@@H]1C[C@@H]2CCCC(O)=C2C(=O)O1 [Compound C10H14O3, Ramulosin]
MHC II (%) (MHC II): 340.5%
IL-6 (%) (IL-6): −0.1232%
NF-kB (%)-LLC ([3]; LLC reporter cells): 34.35%
NF-kB (%)-4T1 ([4]; 4T1 reporter cells): 42.04%
G-CSF (%) (G-CSF; EGF-mediated secretion): 3.85%
Glycolysis (glycolysis): Inhibit
p-Akt/p-mTOR (p-Akt/p-mTOR): Decrease

CMTM4 (CMTM4 [1]): Decrease
Compound: Lobophorin F [C54H78N2O17, Lobophorin F]
MHC II (%) (MHC II): 360.5%
IL-6 (%) (IL-6): −12.2043%
NF-kB (%)-LLC ([3]; LLC reporter cells): 37.64%
NF-kB (%)-4T1 ([4]; 4T1 reporter cells): 40.07%
G-CSF (%) (G-CSF; EGF-mediated secretion): 1.147%
Glycolysis (glycolysis): Inhibit
p-Akt/p-mTOR (p-Akt/p-mTOR): Decrease
